Source: patent US20220387359A1, “SYNERGISTIC INHIBITORS OF CREB-MEDIATED GENE TRANSCRIPTION” (OREGON HEALTH & SCIENCE UNIVERSITY, priority 2019, published 2022)
Counter-ions that a name gives are not always drawn. Like-named read-outs stand apart in the source and are kept apart here. One block for each compound: values may come before it.

Legend:
[1] = from reference 15; cited from earlier work
[2] = test system: CREB-mediated gene transcription; assay: CREB transcription renilla luciferase reporter assay in HEK 293T cells; assay type: cell-based; settings: for IC50: Homo sapiens; for combination index (CI) in inhibiting CREB-mediated gene transcription: Chou-Talalay; for effect of combination with 666-15 on inhibition of CREB-mediated gene transcription: compound combined with 666-15
Experimental: ^a The IC50 refers to the concentration needed to inhibit 50% of the CREB-mediated gene transcription in HEK 293T cells using a transcription renilla luciferase reporter assay. The data are presented as mean±standard deviation (SD) of at least two independent experiments, which were performed in triplicates.
To test this possibility, we employed a transcription luciferase reporter assay in HEK 293T cells.^22 Briefly, the cells were transfected with a CREB renilla luciferase reporter plasmid (CRE-RLuc). This plasmid expresses renilla luciferase under the control of three tandem copies of CRE in the promoter region.
Inhibition of CREB-mediated gene transcription. HEK 293T cells were transfected with CRE-RLuc. Then the cells were treated with increasing concentrations of individual compounds (FIG. 2A) or drug combinations (FIG. 2B) for 30 min before the addition of Fsk (10 μM) for 5 h. The renilla luciferase activity was normalized to the protein concentration in each well and expressed as relative luciferase unit (RLU)/μg protein. The errors are SEM from one representative experiment in triplicate.
HEK293T cells in a well of 6-well plate were transfected with a plasmid (1 μg) encoding renilla luciferase under the control of three copies of CRE (pCRE-RLuc) using Lipofectamin^2000 (Life Technologies) for 3 h. Then the cells were replated into a 96-well plate and the cells were allowed to attach to the bottom of the plate for overnight. The cells were treated with different concentrations of the compounds for 30 min, when Fsk (10 μM) was added to the cells. The cells were further incubated for 5 h at 37° C. The media were removed and the cells were lysed in 30 μl 1× renilla luciferase lysis buffer (Promega) and the renilla luciferase activity was measured using the renilla luciferase assay system (Promega). The protein concentration in each well was determined using the Protein Assay Dye Reagent Concentrate (Bio-rad). The luciferase activity in each well was normalized to the protein concentration and expressed as relative luciferase unit (RLU)/μg protein. The IC50 was calculated in Prism 5.0 using the non-linear regression analysis.

[3] = stability of stock solution in DMSO; assay type: physicochemical; settings: long-term storage of stock solution
[4] = aqueous solubility in ddH2O; assay type: physicochemical; settings: water
From the text: Furthermore, we discovered a novel compound that can potentiate 666-15's inhibitory effect against CREB-mediated gene transcription in living cells.
The synthesis of compound 3 is presented in Scheme 1. […] Under the coupling conditions we used before (BOP, DIPEA, room temperature),^13 a mixture of compositional isomers 6 and 7 (2-(3-(3-((tert-butoxycarbonyl)amino)propoxy)-2-naphthamido)-5-chlorophenyl 3-(2-((tert-butoxy carbonyl)amino)ethoxy)-2-naphthoate) involving acyl group swapping was obtained. These two isomers were only partially separable by conventional silica gel column chromatograph. […] The formation of the unanticipated alternative ester 7 was likely a result of generation of imide intermediate 8 (2-(3-(2-((tert-butoxycarbonyl)amino)ethoxy)-2-naphthamido)-5-chloro-3-hydroxyphenyl 3-(3-((tert-butoxycarbonyl) amino)propoxy)-2-naphthoate) although it was not detected from the reaction mixture. The intermediate 8 could be generated either before the formation of 6 (2-(3-(2-((tert-butoxycarbonyl) amino)ethoxy)-2-naphthamido)-5-chlorophenyl 3-(3-((tert-butoxycarbonyl)amino) propoxy)-2-naphthoate) or after 6 was formed. Once 8 was produced, it could generate either 6 or 7 through an ester bond formation (Scheme 1). […] The Boc groups (tert-butyloxycarbonyl protecting groups) in 6 were then deprotected under acidic condition (HCl, DCM) to give 3 uneventfully. […]

[5] = conversion of ester 3 in complete cell culture media (DMEM with 10% FBS), HPLC; assay type: in vitro ADME; settings: 37° C.
Experimental: With the desired compound 3 in hand, we first investigated the possibility of transformation of 3 into 666-15 in the complete cell culture media (Dulbecco's Modified Eagle Medium with 10% fetal bovine serum (FBS)). […] In stark contrast to the structural congener 2,^15 only a small amount of 666-15 was generated under the reaction condition. In order to investigate if simple ester hydrolysis was occurring to generate products 9 and 10 (FIG. 2A), we compared the main peaks eluted at 10.5 min and 11.2 min with standard samples of 9 and 10 by HPLC.
Compound 3 (200 μM) was incubated with complete tissue culture media (DMEM with 10% FBS) at 37° C. for various time periods. An aliquot of 10 μl was taken at a given time point and mixed with acetonitrile (90 μL). The mixture was centrifuged at 14,000×rpm for 5 min at room temperature in a tabletop centrifuge to precipitate proteins. The supernatant was collected and analyzed by HPLC eluting with a linear of water and acetonitrile, both of which contained 0.1% TFA.

MDA-MB-231 cells = assay: cell growth inhibition MTT assay; assay type: cell-based
Experimental: Then the viable cells were quantified by the MTT reagent. […] The data are presented as mean+SEM. The SEM was from one representative experiment performed in duplicates.
The cells were plated in 96-well plates at 1,000 cells/well and allowed to attach to the bottom of the plate for overnight. Then the cells were treated with different concentrations of compounds for 72 h at 37° C. At the end of treatment, the viable cells were determined by incubating cells with MTT reagent (0.5 mg/mL) in the complete tissue culture media for 3 h. Then the media were removed and the formed purple formazan was dissolved in DMSO for quantification by absorbance at 570 nm using a SpectraMax i3 plate reader (Molecular Devices). The percent of growth is defined as 100×(Atreated−Ainitial)/(Acontrol−Ainitial), where Atreated represents absorbance in wells treated with a compound, Ainitial represents the absorbance at time 0, and Acontrol denotes media-treated cells.

KIX-KID interaction = KIX-KID interaction (Homo sapiens, UniProt Q92793); assay: split renilla luciferase complementation assay of KIX-KID interaction; assay type: cell-based
NR4A2 = assay: endogenous CREB target gene expression by qRT-PCR in HEK 293T cells; assay type: cell-based; settings: Fsk-stimulated HEK 293T cells
[6] = HEK 293T cells, CRE-RLuc reporter, Fsk stimulated, mean ± SD of at least two independent experiments, read-out: CREB inhibition (IC50)

Sequence of KIX-KID interaction (Q92793 587-666 limits assumed): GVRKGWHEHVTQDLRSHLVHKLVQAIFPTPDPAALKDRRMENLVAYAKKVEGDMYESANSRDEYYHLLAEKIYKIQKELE

SMILES: NCCCOc1cc2ccccc2cc1C(=O)Oc1cc(Cl)ccc1NC(=O)c1cc2ccccc2cc1OCCN (as salt: hydrochloride) [Compound 3, 2-(3-(2-Aminoethoxy)-2-naphthamido)-5-chlorophenyl 3-(3-Aminopropoxy)-2-naphthoate Dihydrochloride]
melting point: 216 to 217 °C

SMILES: NCCCOc1cc2ccccc2cc1C(=O)Nc1ccc(Cl)cc1OC(=O)c1cc2ccccc2cc1OCCCN [Compound 2, 2-(3-(3-aminopropoxy)-2-naphthamido)-5-chlorophenyl 3-(3-aminopropoxy)-2-naphthoate]
aqueous solubility in ddH2O [1]: > 100 mg/mL

SMILES: NCCCOc1cc2ccccc2cc1C(=O)Oc1cc(Cl)ccc1NC(=O)c1cc2ccccc2cc1OCCN [Compound 3, 2-(3-(2-Aminoethoxy)-2-naphthamido)-5-chlorophenyl 3-(3-Aminopropoxy)-2-naphthoate Dihydrochloride]
IC50 ([2]; HEK-293T, read-out: CREB inhibition (IC50, μM)): 0.25 ± 0.11 µM | stability in DMSO [3]: unstable in DMSO for long-term storage | solubility [4]: > 100 mg/mL | conversion in complete cell culture media [5]: rapidly converted into four new product peaks

SMILES: NCCCOc1cc2ccccc2cc1C(=O)Nc1ccc(Cl)cc1O [Compound 11, 3-(3-aminopropoxy)-N-(4-chloro-2-hydroxyphenyl)-2-naphthamide]
combination index (CI) of anti-proliferative effect (MDA-MB-231 cells; 11 (0.5 or 1.0 μM) combined with 666-15, 72 h): less than 1.0 | antiproliferative effect (cell growth) (MDA-MB-231 cells; 11 alone, 0.5 or 1.0 μM, 72 h): did not appreciably inhibit the cell growth | combination index (CI) in inhibiting CREB-mediated gene transcription ([2]; 11 (5 μM) combined with 666-15 0.01 μM): 2.87 | combination index (CI) in inhibiting CREB-mediated gene transcription ([2]; 11 (5 μM) combined with 666-15 0.05 μM): 0.31 | combination index (CI) in inhibiting CREB-mediated gene transcription ([2]; 11 (5 μM) combined with 666-15 0.1 μM): 0.17 | combination index (CI) in inhibiting CREB-mediated gene transcription ([2]; 11 (5 μM) combined with 666-15 0.5 μM): 0.37 | combination index (CI) in inhibiting CREB-mediated gene transcription ([2]; 11 (5 μM) combined with 666-15 1.0 μM): 0.56 | combination index (CI) in inhibiting CREB-mediated gene transcription ([2]; 11 (5 μM) combined with 666-15 5.0 μM): 2.41 | effect of combination with 666-15 on inhibition of CREB-mediated gene transcription ([2]; HEK 293T cells): significantly potentiated activity of 666-15 | IC50 [2, 6]: 26.3 ± 13.6 µM | IC50 (KIX-KID interaction): > 50 µM | expression level of NR4A2 (NR4A2; 666-15 (50 nM) combined with compound 11 (5 μM)): significant inhibition of NR4A2 transcription was observed | expression level of NR4A2 (NR4A2; compound 11 alone, 5 μM): did not inhibit the expression of NR4A2

IC50 [2, 6]: > 50 µM | melting point: 128 to 129 °C
SMILES: O=C1NCCOc2cc3ccccc3cc21 [Compound 12, 3,4-dihydronaphtho[2,3-f][1,4]oxazepin-5(2H)-one]
CREB inhibition potency ([2]; HEK 293T cells, compound alone): inactive | effect of combination with 666-15 on inhibition of CREB-mediated gene transcription ([2]; HEK 293T cells): did not produce further inhibition of CREB-mediated gene transcription

solubility [4]: < 0.5 mg/mL
SMILES: NCCCOc1cc2ccccc2cc1C(=O)NCCOc1cc2ccccc2cc1C(=O)Nc1ccc(Cl)cc1O [Compound 666-15, 3-(3-aminopropoxy)-N-(2-((3-((4-chloro-2-hydroxyphenyl)carbamoyl)naphthalen-2-yl)oxy)ethyl)-2-naphthamide]
